Our source for the melting point values is patent US20100311741A1, “Bicyclosulfonyl Acid (BCSA) Compounds and Their Use as Therapeutic Agents” (INHIBOX LTD., priority 2007, published 2010).

The term melting point denotes the temperature of the solid-liquid transition.

As for `COc1cccc2c1C(CC(=O)NO)N(c1ccccc1)S2(=O)=O` (centres unmarked) [Compound 54.1, 2-(4-Methoxy-1,1-dioxo-2-phenyl-2,3-dihydro-1H-benzo[d]isothiazol-3-yl)-N-hydroxyacetamide], the melting point was 188 to 190 °C.
`O=C(CC1c2c(Cl)cccc2S(=O)(=O)N1c1ccccc1)NO` (centres unmarked) [Compound 54.2, 2-(4-Chloro-1,1-dioxo-2-phenyl-2,3-dihydro-1H-benzo[d]isothiazol-3-yl)-N-hydroxyacetamide]: the melting point is 204 to 206 °C.
As for `O=C(CC1c2cccc(C(F)(F)F)c2S(=O)(=O)N1c1ccccc1)NO` (centres unmarked) [Compound 54.3], the melting point lay within 187 to 189 °C.
With `O=C(CC1c2cccc(Cl)c2S(=O)(=O)N1c1ccccc1)NO` (centres unmarked) [Compound 54.7, 2-(7-Chloro-1,1-dioxo-2-phenyl-2,3-dihydro-1H-benzo[d]isothiazol-3-yl)-N-hydroxyacetamide] the figure was > 188 °C (dec.); with `COc1cccc2c1S(=O)(=O)N(c1ccccc1)C2CC(=O)NO` (centres unmarked) [Compound 54.10, (7-Methoxy-1,1-dioxo-2-phenyl-2,3-dihydro-1H-benzo[d]isothiazol-3-yl)-N-hydroxyacetamide], > 161 °C (dec.); with `COc1cc(Cl)cc2c1S(=O)(=O)N(c1ccccc1)C2CC(=O)NO` (centres unmarked) [Compound 54.11, (5-Chloro-7-Methoxy-1,1-dioxo-2-phenyl-2,3-dihydro-1H-benzo[d]isothiazol-3-yl)-N-hydroxyacetamide], > 170 °C (dec.).
`COc1ccc2c(c1Cl)C(CC(=O)NO)N(c1ccccc1)S2(=O)=O` (centres unmarked) [Compound 54.12, (4-Chloro-5-Methoxy-1,1-dioxo-2-phenyl-2,3-dihydro-1H-benzo[d]isothiazol-3-yl)-N-hydroxyacetamide]: the melting point was 184 to 188 °C (dec.).
Regarding `O=C(NO)C1c2ccccc2S(=O)(=O)N1c1ccccc1` (centres unmarked) [Compound 62.1, 1,1-Dioxo-2-phenyl-2,3-dihydro-1H-benzo[d]isothiazole-3-carboxylic acid hydroxyamide], the melting point fell in the range of 188 to 191 °C.
Take `O=C(NO)C1c2c(Cl)cccc2S(=O)(=O)N1c1ccccc1` (centres unmarked) [Compound 62.2, 4-Chloro-1,1-dioxo-2-phenyl-2,3-dihydro-1H-benzo[d]isothiazole-3-carboxylic acid hydroxyamide]: the melting point is 167 to 170 °C.
`COc1cccc(N2C(CC(=O)NO)c3ccccc3S2(=O)=O)c1` (centres unmarked) [Compound (5.7), 2-[2-(3-Methoxyphenyl)-1,1-dioxo-2,3-dihydro-1H-benzo[d]isothiazol-3-yl]-N-hydroxyacetamide] had a melting point of 147 to 148 °C.
`COc1ccc(N2C(CC(=O)NO)c3ccccc3S2(=O)=O)cc1` (centres unmarked) [Compound (5.8), 2-[2-(4-Methoxyphenyl)-1,1-dioxo-2,3-dihydro-1H-benzo[d]isothiazol-3-yl]-N-hydroxyacetamide]: the melting point was 185 to 186 °C.
As to `O=C(CC1c2ccccc2S(=O)(=O)N1c1cccc(Oc2ccccc2)c1)NO` (centres unmarked) [Compound (5.9), 2-[2-(3-Phenoxyphenyl)-1,1-dioxo-2,3-dihydro-1H-benzo[d]isothiazol-3-yl]-N-hydroxyacetamide], the melting point was in the range of 181 to 182 °C.
`O=C(CC1c2ccccc2S(=O)(=O)N1c1ccc(Cl)cc1)NO` (centres unmarked) [Compound (5.10), 2-[2-(4-Chlorophenyl)-1,1-dioxo-2,3-dihydro-1H-benzo[d]isothiazol-3-yl]-N-hydroxyacetamide] had a melting point of 184 to 185 °C.
With `CSc1ccc(N2C(CC(=O)NO)c3ccccc3S2(=O)=O)cc1` (centres unmarked) [Compound (5.20), 2-[1,1-Dioxo-2-(4-methylsulfanylphenyl)-2,3-dihydro-1H-benzo[d]isothiazol-3-yl]-N-hydroxyacetamide] the figure was 197 to 198 °C (dec.); with `O=C(CC1c2ccccc2S(=O)(=O)N1c1ccc(-c2ccccc2)cc1)NO` (centres unmarked) [Compound (5.23), 2-(2-Biphenyl-4-yl-1,1-dioxo-2,3-dihydro-1H-benzo[d]isothiazol-3-yl)-N-hydroxyacetamide], 207 to 208 °C (dec.).
`O=C(CC1c2ccccc2S(=O)(=O)N1c1ccc(Oc2ccccc2)cc1)NO` (centres unmarked) [Compound (5.24), 2-[1,1-Dioxo-2-(4-phenoxy-phenyl)-2,3-dihydro-1H-benzo[d]isothiazol-3-yl]-N-hydroxyacetamide] registered a melting point of 174 to 175 °C.
`O=C(CC1c2ccccc2S(=O)(=O)N1c1ccc(OCc2ccccc2)cc1)NO` (centres unmarked) [Compound (5.25), 2-[2-(4-Benzyloxy-phenyl)-1,1-dioxo-2,3-dihydro-1H-benzo[d]isothiazol-3-yl]-N-hydroxyacetamide] yielded a melting point of 186 to 187 °C.
As for `O=C(CC1c2ccccc2S(=O)(=O)N1c1ccc(-n2cccc2)cc1)NO` (centres unmarked) [Compound (5.26), 2-[1,1-Dioxo-2-(4-pyrrol-1-yl-phenyl)-2,3-dihydro-1H-benzo[d]isothiazol-3-yl]-N-hydroxyacetamide], the melting point is 192 to 194 °C (dec.).
With `O=C(CC1c2ccccc2S(=O)(=O)N1c1ccc(-n2ccnc2)cc1)NO` (centres unmarked) [Compound (5.27), 2-[2-(4-Imidazol-1-yl-phenyl)-1,1-dioxo-2,3-dihydro-1H-benzo[d]isothiazol-3-yl]-N-hydroxyacetamide], the melting point was 199 to 201 °C (dec.).
For `O=C(CC1c2ccccc2S(=O)(=O)N1c1ccc(-n2cncn2)cc1)NO` (centres unmarked) [Compound (5.28), 2-[1,1-Dioxo-2-(4-[1,2,4]triazol-1-yl-phenyl)-2,3-dihydro-1H-benzo[d]isothiazol-3-yl]-N-hydroxyacetamide], the melting point was 205 to 207 °C (dec.).
For the molecule `O=C(CC1c2ccccc2S(=O)(=O)N1c1ccc(-c2cnco2)cc1)NO` (centres unmarked) [Compound (5.29), 2-[2-(4-Oxazol-5-yl-phenyl)-1,1-dioxo-2,3-dihydro-1H-benzo[d]isothiazol-3-yl]-N-hydroxyacetamide], the melting point is 138 to 140 °C (dec.).
As to `Cc1nc(-c2ccc(N3C(CC(=O)NO)c4ccccc4S3(=O)=O)cc2)cs1` (centres unmarked) [Compound (5.30), 2-{2-[4-(2-Methylthiazol-4-yl)phenyl]-1,1-dioxo-2,3-dihydro-1H-benzo[d]isothiazol-3-yl}-N-hydroxyacetamide], the melting point was 179 to 181 °C (dec.).
With `CN(C)c1ccc(N2C(CC(=O)NO)c3ccccc3S2(=O)=O)cc1` (centres unmarked) [Compound (5.31), 2-[2-(4-Dimethylaminophenyl)-1,1-dioxo-2,3-dihydro-1H-benzo[d]isothiazol-3-yl]-N-hydroxyacetamide] the figure was 185 to 186 °C.
Take `O=C(CC1c2ccccc2S(=O)(=O)N1c1ccc(N2CCOCC2)cc1)NO` (centres unmarked) [Compound (5.32), 2-[2-(4-Morpholin-4-ylphenyl)-1,1-dioxo-2,3-dihydro-1H-benzo[d]isothiazol-3-yl]-N-hydroxyacetamide]: the melting point was in the range of 204 to 206 °C.
In the case of `CCOc1ccc(N2C(CC(=O)NO)c3ccccc3S2(=O)=O)cc1` (centres unmarked) [Compound (5.33), 2-[2-(4-Ethoxyphenyl)-1,1-dioxo-2,3-dihydro-1H-benzo[d]isothiazol-3-yl]-N-hydroxyacetamide], the melting point lay in the range of 177 to 178 °C.
The molecule `CCCCOc1ccc(N2C(CC(=O)NO)c3ccccc3S2(=O)=O)cc1` (centres unmarked) [Compound (5.34), 2-[2-(4-Butoxyphenyl)-1,1-dioxo-2,3-dihydro-1H-benzo[d]isothiazol-3-yl]-N-hydroxyacetamide] gave a melting point of 165 to 166 °C.
